Measurements as given in article PMC12454639, “Direct disassembly of α-syn preformed fibrils into α-syn monomers by an all-D-peptide” (NPJ Parkinson's Disease, 2025).
Square brackets hold non-standard residues; d marks the D form. Peptide text beside a SMILES is read from it.

Legend:
Solubility of D-peptides = settings: PBS pH 7.4, 1 h at 37 °C, 20,800×g centrifugation, UV–vis absorption; lyophilized chloride salt
[1] = CD spectroscopy of SVD-1a alone; format: physicochemical; settings: 30 µM, PBS pH 7.4, 37 °C
Protocol: Far-UV circular dichroism (CD) data were collected using a Jasco J-1100 spectropolarimeter (Jasco, GE). 350 µl samples were pooled and loaded into a high precision quartz cuvette with a path length of 1 mm (Hellma group, GE). A scan speed of 20 nm/min with five accumulations per sample was performed using far UV wavelengths from 260 to 190 nm. Baseline was corrected by subtracting measurements of the reference sample only.
Supplementary Fig. 13: Analysis of the seeded aggregation assay in the presence and absence of SVD-1a using circular dichroism (CD) spectroscopy. Small α-syn PFF (500 nM) were incubated in PBS (pH 7.4) at 37 °C under quiescent conditions for 24 hours, either alone or in the presence of 15 µM α-synuclein monomer and/or 30 µM SVD-1a. For each condition and time point, three replicates (each 120 µl) were pooled and analyzed by CD spectroscopy at 0, 2, 8, and 24 hours. Far-UV ellipticity was measured in a quartz cuvette (path length = 10 mm) using a J-1100 CD spectrometer (Jasco, GE). […] (D) Co-incubation of 500 nM α-synuclein PFFs with 15 µM α-synuclein monomer induced a structural transition towards β-sheet formation, as reflected in the CD spectrum (referenced to spectrum in (A)).

[2] = tested on: α-synA53T–YFP (HEK293T cells); test: Seeded intracellular aggregation in α-synA53T–YFP cells; format: cell-based, human; settings: day 3; for aggregate-positive cells: transfected, then 30 nM small α-syn PFF seeds
Text: Fig. 5 SVD-1a inhibits seeded α-syn aggregation in cells. To validate the inhibitory effect of SVD-1a in cells, we used the α-synA53T–YFP cell system, which stably expresses human α-syn with the familial A53T mutation fused to YFP in HEK293T cells and enables fluorescence-based detection of aggregates that show up as highly fluorescent spots within the cells, clearly above background, intracellularly after seeding with small α-syn PFF seeds. In order to avoid interference of the peptide with the uptake of small α-syn PFF seeds, we performed a two-step transfection starting with a first transfection of the peptide and a second transfection with PFFs. […] To quantify the number of cells with aggregates in our images and to avoid experimental bias, we used a fully automated algorithm for image analysis. […] One asterisk denotes p values < 0.05 and three asterisks a p value < 0.001. Error bars indicate standard deviation. […] Treatment with increasing concentrations of SVD-1a, here imaged at 25 µM, led to a concentration-dependent reduction in the number of cells with aggregates (H-J). Panels B, E, and H show nuclei stained with Hoechst 33342. Panels C, F, and I show αSynA53T–YFP fluorescence. Panels D, G, and J show merged images. The scale bar in J represents 100 µm and applies to all panels. The viability of the cells was not reduced by transfection with seeds or in SVD-1a, as shown in Supplementary Fig. 15. Confirmation that highly fluorescent aggregates contain α-syn is shown in Supplementary Fig. 14 by co-immunostaining with syn-211 antibody, anti-α-syn (phospho S129) antibody and 5G4 antibody.
A construct encoding full-length A53T-mutated human α-syn fused with YFP at the C-terminus was synthesized and introduced into the pMK–RQ expression vector (GeneArt; Thermo Fisher Scientific, USA). The α-synA53T–YFP construct was subcloned into the pIRESpuro3 vector (Clontech; Takara Bio, JPN) using NheI (5′) and NotI (3′) restriction sites. HEK293T cells (American Type Culture Collection) were cultured in high-glucose Dulbecco’s modified Eagle’s medium (DMEM; Sigma-Aldrich, USA) supplemented with 10% fetal calf serum (Sigma-Aldrich, USA), and 50 units/ml penicillin as well as 50 μg/ml streptomycin (Sigma-Aldrich, USA). Cells were cultured in a humidified atmosphere of 5% CO2 at 37 °C. Cells plated in DMEM were transfected using Lipofectamine 2000 (Invitrogen; Thermo Fisher Scientific, USA). Stable cells were selected in DMEM containing 1 μg/ml puromycin (EMD Millipore, USA). Monoclonal lines were generated by fluorescence-activated cell sorting of a polyclonal cell population in 96-well plates using a MoFlo XDP cell sorter (Beckman Coulter, USA). Finally, the clonal cell line B5 was selected from among 24 clonal cell lines and is referred to as αSynA53T–YFP cells. Peptides were incubated with 1.5% Lipofectamine 2000 in OptiMEM for 2 h at room temperature. […] On day 3 the cells were imaged with an IN Cell Analyzer 6500HS System (Cytiva, USA) using the blue and green fluorescence channel, and analyzed using IN Carta Image Analysis Software (Cytiva, USA) after an algorithm was established to identify intracellular aggregates in living cells. For each condition, we used four wells and took 16 images per well, which were analyzed by a fully automated algorithm to avoid bias. […]

concentration completely retained in supernatant (Solubility of D-peptides) | Structure (SMILES) | secondary structure of peptide alone (CD) [1] | aggregate-positive cells ([2]; 5 µM peptide) [%] | aggregate-positive cells ([2]; 25 µM peptide) [%] | inhibition of intracellular seeded α-syn aggregation ([2]; peptide transfection, then 30 nM PFF seeds)
at least 1 mM | CC[C@@H](C)[C@@H](NC(=O)[C@@H](Cc1c[nH]cn1)NC(=O)[C@@H](CCC(=O)O)NC(=O)[C@@H](CCC(N)=O)NC(=O)[C@@H](Cc1c[nH]c2ccccc12)NC(=O)[C@@H](Cc1ccc(O)cc1)NC(=O)[C@H](NC(=O)[C@@H](CCC(=O)O)NC(=O)[C@@H](Cc1c[nH]cn1)NC(=O)[C@H](NC(=O)[C@H]1CCCN1C(=O)[C@@H](CCSC)NC(=O)[C@H](N)CCCCN)[C@H](C)O)[C@H](C)O)C(=O)N[C@H](Cc1c[nH]c2ccccc12)C(=O)N[C@H](Cc1c[nH]cn1)C(=O)N[C@H](C)C(N)=O [SVD-1] (H-[dK][dM][dP][dT][dH][dE][dT][dY][dW][dQ][dE][dH][dI][dW][dH][dA]-NH2) | – | – | – | –
– | CC[C@@H](C)[C@@H](NC(=O)[C@@H](Cc1c[nH]cn1)NC(=O)[C@@H](CCC(=O)O)NC(=O)[C@@H](CCC(N)=O)NC(=O)[C@@H](Cc1c[nH]c2ccccc12)NC(=O)[C@@H](Cc1ccc(O)cc1)NC(=O)[C@H](NC(=O)[C@@H](CCC(=O)O)NC(=O)[C@@H](Cc1c[nH]cn1)NC(=O)[C@H](NC(=O)[C@H]1CCCN1C(=O)[C@@H](CC(C)C)NC(=O)[C@H](N)CCCNC(=N)N)[C@H](C)O)[C@H](C)O)C(=O)N[C@H](Cc1c[nH]c2ccccc12)C(=O)N[C@H](Cc1c[nH]cn1)C(=O)N[C@H](C)C(=O)N[C@H](CCCNC(=N)N)C(=O)N[C@H](CCCNC(=N)N)C(=O)N[C@H](CCCNC(=N)N)C(=O)N[C@H](CCCNC(=N)N)C(=O)N[C@H](CCCNC(=N)N)C(N)=O [SVD-1a] (H-[dR][dL][dP][dT][dH][dE][dT][dY][dW][dQ][dE][dH][dI][dW][dH][dA][dR][dR][dR][dR][dR]-NH2) | random coil secondary structure | 64 | 57 | inhibited α-syn aggregation in αSynA53T–YFP cells in a dose-dependent manner
